Patent publication US20210222225A1, “Medium for Disk Diffusion Method to Evaluate Antibiotic Sensitivity” (priority 2018, published 2021)

Legend:
[1] = system: mcr-1-harboring Enterobacter aerogenes strain; test: Colistin disk diffusion on modified Mueller-Hinton agar, mcr-1; type: cell-based
Experimental: (§1) To each MHA thus modified was added protamine (Sigma-Aldrich, St Louis, Mo., USA) at a concentration of 100 μg/ml, and solidification was performed. Then, on a surface of the medium was evenly inoculated each of colistin-susceptible (S) or -resistant (R) Acinetobacter calcoaceticus-baumannii complex (ACB) strain, Pseudomonas aeruginosa ATCC27853 strain, Escherichia coli ATCC25922 strain, and mcr-1-harboring Enterobacter aerogenes strain, and a colistin disk was placed thereon. Subsequently, a diameter of a growth inhibition zone (colistin inhibition zone), which had been formed clear by diffusion of colistin to the agar around the colistin disk, was measured.
(§2) As in Example 1, a concentration of agar particles (BD Diagnostic, Sparks, Md., USA) in Mueller-Hinton broth medium (BD Diagnostic) was adjusted to 17 g/L or 5.1 g/L that is 30% of 17 g/L. To select a concentration of protamine, which can enhance diffusion of colistin from a disk without interfering with bacterial growth, while using the protamine at various concentrations, protamine (Sigma-Aldrich, St Louis, Mo., USA) was added to the medium at concentrations of 1 mg/ml, 700 μg/ml, 400 μg/ml, 300 μg/ml, 200 μg/ml, 150 μg/ml, 100 μg/ml, and 50 μg/ml. Each medium thus modified was solidified. Then, on a surface of each medium was evenly inoculated each of colistin-susceptible (S) or -resistant (R) Acinetobacter calcoaceticus-baumannii complex (ACB) strain, Pseudomonas aeruginosa ATCC27853 strain, and mcr-1-harboring Enterobacter aerogenes strain, and a colistin disk was placed thereon. Then, it was determined whether each strain was grown, and a diameter of a growth inhibition zone, which had been formed around the disk, was measured.

[2] = system: Escherichia coli ATCC25922 strain; test: Colistin disk diffusion on modified Mueller-Hinton agar, ECO; type: cell-based; settings: protamine 100 μg/ml
Experimental: as §1

[3] = system: Pseudomonas aeruginosa ATCC27853 strain; test: Colistin disk diffusion on modified Mueller-Hinton agar, PAE; type: cell-based
Experimental: as §1, §2

KPN K3070_S = test: Colistin disk diffusion, guanidine hydrochloride medium, K3070_S; type: cell-based, Klebsiella pnemoniae; settings: 30% agar
Experimental: (§3) A concentration of agar particles (BD Diagnostic, Sparks, Md., USA) in Mueller-Hinton broth medium (BD Diagnostic) was adjusted to 5.1 g/L, which is 30% of 17 g/L, and guanidine hydrochloride was added to a concentration of 500 μg/ml, 50 μg/ml, or 5 μg/ml. Then, solidification was performed. On a surface of each medium thus prepared was evenly inoculated each of colistin-susceptible (S) or -resistant (R) Acinetobacter baumannii (ABA) strain, colistin-susceptible (S) or -resistant (R) Klebsiella pnemoniae (KPN) strain, and colistin-susceptible (S) or -resistant (R) Pseudomonas aeruginosa (PAE) strain, and a colistin disk was placed thereon. Then, pictures of a growth inhibition zone, which had been formed clear, around the disk were taken for each strain, and the results are illustrated in FIGS. 8 to 10.

ABA A17_S = test: Colistin disk diffusion, guanidine hydrochloride medium, A17_S; type: cell-based, Acinetobacter baumannii; settings: 30% agar
Experimental: as §3

ABA A532_R = test: Colistin disk diffusion, guanidine hydrochloride medium, A532_R; type: cell-based, Acinetobacter baumannii; settings: 30% agar
Experimental: as §3

[4] = 30% agar, protamine 1,000 μg/ml
[5] = 100% agar, protamine 1,000 μg/ml
[6] = guanidine hydrochloride 5 μg/ml
[7] = guanidine hydrochloride 50 μg/ml
[8] = guanidine hydrochloride 500 μg/ml

colistin
Disk diffusion (mm) ([1]; 30% agar, protamine 50 μg/ml): 9 mm
Diameter (mm) of colistin inhibition zone ([1]; 30% agar, protamine 100 μg/ml): 11 mm
Disk diffusion (mm) ([1]; 30% agar, protamine 100 μg/ml): 9 mm
Disk diffusion (mm) ([1]; 30% agar, protamine 150 μg/ml): 9 mm
Disk diffusion (mm) ([1]; 30% agar, protamine 200 μg/ml): 8 mm
Disk diffusion (mm) ([1]; 30% agar, protamine 300 μg/ml): 6 mm
Disk diffusion (mm) ([1]; 30% agar, protamine 400 μg/ml): 6 mm
Disk diffusion (mm) ([1]; 30% agar, protamine 700 μg/ml): 6 mm
Disk diffusion (mm) [1, 4]: 6 mm
Diameter (mm) of colistin inhibition zone ([1]; 40% agar, protamine 100 μg/ml): 10 mm
Diameter (mm) of colistin inhibition zone ([1]; 50% agar, protamine 100 μg/ml): 11 mm
Diameter (mm) of colistin inhibition zone ([1]; 60% agar, protamine 100 μg/ml): 10 mm
Diameter (mm) of colistin inhibition zone ([1]; 70% agar, protamine 100 μg/ml): 10 mm
Diameter (mm) of colistin inhibition zone ([1]; 80% agar, protamine 100 μg/ml): 9 mm
Diameter (mm) of colistin inhibition zone ([1]; 90% agar, protamine 100 μg/ml): 10 mm
Disk diffusion (mm) ([1]; 100% agar, protamine 50 μg/ml): 9 mm
Diameter (mm) of colistin inhibition zone ([1]; 100% agar, protamine 100 μg/ml): 10 mm
Disk diffusion (mm) ([1]; 100% agar, protamine 100 μg/ml): 9 mm
Disk diffusion (mm) ([1]; 100% agar, protamine 150 μg/ml): 10 mm
Disk diffusion (mm) ([1]; 100% agar, protamine 200 μg/ml): 9 mm
Disk diffusion (mm) ([1]; 100% agar, protamine 300 μg/ml): 10 mm
Disk diffusion (mm) ([1]; 100% agar, protamine 400 μg/ml): 8 mm
Disk diffusion (mm) ([1]; 100% agar, protamine 700 μg/ml): 10 mm
Disk diffusion (mm) [1, 5]: 6 mm
Diameter (mm) of colistin inhibition zone ([2]; 30% agar): 16 mm
Diameter (mm) of colistin inhibition zone ([2]; 40% agar): 14 mm
Diameter (mm) of colistin inhibition zone ([2]; 50% agar): 14 mm
Diameter (mm) of colistin inhibition zone ([2]; 60% agar): 14 mm
Diameter (mm) of colistin inhibition zone ([2]; 70% agar): 14 mm
Diameter (mm) of colistin inhibition zone ([2]; 80% agar): 14 mm
Diameter (mm) of colistin inhibition zone ([2]; 90% agar): 13 mm
Diameter (mm) of colistin inhibition zone ([2]; 100% agar): 13 mm
Disk diffusion (mm) ([3]; 30% agar, protamine 50 μg/ml): 17 mm
Diameter (mm) of colistin inhibition zone ([3]; 30% agar, protamine 100 μg/ml): 16 mm
Disk diffusion (mm) ([3]; 30% agar, protamine 100 μg/ml): 18 mm
Disk diffusion (mm) ([3]; 30% agar, protamine 150 μg/ml): 18 mm
Disk diffusion (mm) ([3]; 30% agar, protamine 200 μg/ml): 20 mm
Disk diffusion (mm) ([3]; 30% agar, protamine 300 μg/ml): 6 mm
Disk diffusion (mm) ([3]; 30% agar, protamine 400 μg/ml): 6 mm
Disk diffusion (mm) ([3]; 30% agar, protamine 700 μg/ml): 6 mm
Disk diffusion (mm) [3, 4]: 6 mm
Diameter (mm) of colistin inhibition zone ([3]; 40% agar, protamine 100 μg/ml): 15 mm
Diameter (mm) of colistin inhibition zone ([3]; 50% agar, protamine 100 μg/ml): 14 mm
Diameter (mm) of colistin inhibition zone ([3]; 60% agar, protamine 100 μg/ml): 15 mm
Diameter (mm) of colistin inhibition zone ([3]; 70% agar, protamine 100 μg/ml): 14 mm
Diameter (mm) of colistin inhibition zone ([3]; 80% agar, protamine 100 μg/ml): 14 mm
Diameter (mm) of colistin inhibition zone ([3]; 90% agar, protamine 100 μg/ml): 13 mm
Disk diffusion (mm) ([3]; 100% agar, protamine 50 μg/ml): 14 mm
Diameter (mm) of colistin inhibition zone ([3]; 100% agar, protamine 100 μg/ml): 13 mm
Disk diffusion (mm) ([3]; 100% agar, protamine 100 μg/ml): 14 mm
Disk diffusion (mm) ([3]; 100% agar, protamine 150 μg/ml): 14 mm
Disk diffusion (mm) ([3]; 100% agar, protamine 200 μg/ml): 13 mm
Disk diffusion (mm) ([3]; 100% agar, protamine 300 μg/ml): 14 mm
Disk diffusion (mm) ([3]; 100% agar, protamine 400 μg/ml): 15 mm
Disk diffusion (mm) ([3]; 100% agar, protamine 700 μg/ml): 17 mm
Disk diffusion (mm) [3, 5]: 18 mm
Disk diffusion (mm) (KPN K3070_S; [6]): 17 mm
Disk diffusion (mm) (KPN K3070_S; [7]): 16 mm
Disk diffusion (mm) (KPN K3070_S; [8]): 17 mm
Disk diffusion (mm) (ABA A17_S; [6]): 15 mm
Disk diffusion (mm) (ABA A17_S; [7]): 15 mm
Disk diffusion (mm) (ABA A17_S; [8]): 15 mm
Disk diffusion (mm) (ABA A532_R; [6]): 9 mm
Disk diffusion (mm) (ABA A532_R; [7]): 9 mm
Disk diffusion (mm) (ABA A532_R; [8]): 9 mm
